Read-outs that look alike come from different tables or passages of the source.
Experiments:
[1] = biological target: T1, HCV NS5B RdRp genotype 1b (Hepatitis C virus genotype 1b, UniProt Q9WMX2); assay: Standard HCV NS5B RdRp enzyme assay; assay type: biochemical; settings: HCV NS5B RdRp genotype 1b, read-out: IC50
T1 construct: The protein was expressed with an 18 amino acid C-terminal truncation to enhance the solubility; made in house; host or cells: E. coli BL21(DE3), pET21a vector
Procedure, shortened: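 Radiometric SPA measuring 3H-UMP incorporation on polyA/biotin-oligo-dT12 (6 nM/180 nM), 0.29 μM total UTP. Enzyme: NS5B 1b lacking last 18 residues, 28 nM final, 30° C for 60 min in 20 mM Hepes pH 7.5, 2.5 mM MgCl2, 2% DMSO. IC50 from seven-point curves.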

HCV replicon cells = assay: HCV replicon FRET / luciferase assay (96-well plates); assay type: cell-based; settings: Hepatitis C virus, HCV replicon, read-out: EC50
Procedure, shortened: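 Percent activity is background-subtracted signal relative to untreated cell wells, with background taken from maximal protease-inhibitor wells. Cytotoxicity is Alamar blue fluorescence relative to controls. Replicon inhibition was read by NS3 FRET peptide cleavage (340/490 nm) or luciferase.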

T1 sequence (Q9WMX2 2420-2992): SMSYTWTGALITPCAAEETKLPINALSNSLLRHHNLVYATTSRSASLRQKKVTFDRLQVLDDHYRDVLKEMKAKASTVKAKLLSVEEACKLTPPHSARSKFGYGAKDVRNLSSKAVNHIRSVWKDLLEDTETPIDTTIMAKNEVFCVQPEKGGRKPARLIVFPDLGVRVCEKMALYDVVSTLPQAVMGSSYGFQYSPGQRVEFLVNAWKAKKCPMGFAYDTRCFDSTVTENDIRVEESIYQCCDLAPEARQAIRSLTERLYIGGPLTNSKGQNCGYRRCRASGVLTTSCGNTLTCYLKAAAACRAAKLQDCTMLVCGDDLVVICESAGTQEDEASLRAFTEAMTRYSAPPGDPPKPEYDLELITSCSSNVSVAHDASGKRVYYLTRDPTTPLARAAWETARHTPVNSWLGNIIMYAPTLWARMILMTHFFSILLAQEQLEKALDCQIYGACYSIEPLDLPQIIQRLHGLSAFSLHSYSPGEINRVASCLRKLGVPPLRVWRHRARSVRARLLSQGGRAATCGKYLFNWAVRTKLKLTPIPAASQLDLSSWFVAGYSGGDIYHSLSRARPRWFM

| SMILES | IC50 ([1]; Table 1b) [nM] | EC50 (HCV replicon cells; Table 1b) [nM] | IC50 ([1]; Table 1a) [nM] | EC50 (HCV replicon cells; Table 1a) [nM] | other results |
| --- | --- | --- | --- | --- | --- |
| CCNC(=O)c1cccc(-c2ccc(-c3ccc4oc(-c5ccc(F)cc5)c(C(=O)NC)c4c3)cc2C(=O)NCC(C)C)c1 | < 250 | < 250 | – | – | – |
| CNC(=O)c1c(-c2ccc(F)cc2)oc2ccc(-c3cccc(C(=O)NCCNC(C)=O)c3)cc12 | – | – | 1000 to 10000 | 1000 to 10000 | – |
| CNC(=O)c1c(-c2ccc(F)cc2)oc2ccc(-c3cccc(C(=O)NCc4cnc(C)cn4)c3)cc12 | – | – | 250 to 1000 | 250 to 1000 | – |
| CNC(=O)c1c(-c2ccc(F)cc2)oc2ccc(-c3cc(C(=O)NC4(c5ncccn5)CC4)c(C)cc3C)cc12 | < 250 | < 250 | – | – | – |
| CNC(=O)c1c(-c2ccc(F)cc2)oc2ccc(-c3cc(OCCCCN)cc(C(=O)NCC(C)C)c3)cc12 | < 250 | 1000 to 10000 | – | – | – |
| CNC(=O)c1c(-c2ccc(F)cc2)oc2cc(N(CCO)S(C)(=O)=O)c(-c3cccc(C(=O)NC4(c5ccccn5)CC4)c3)cc12 | < 250 | < 250 | – | – | – |
| CNC(=O)c1c(-c2ccc(F)cc2)oc2ccc(-c3cccc(C(=O)NC(C)(C)C(=O)OC)c3)cc12 | – | – | < 250 | < 250 | – |
| CCOC(=O)[C@@H]1CCCN1C(=O)c1cccc(-c2ccc3oc(-c4ccc(F)cc4)c(C(=O)NC)c3c2)c1 | – | – | 1000 to 10000 | > 10000 | – |
| CNC(=O)c1c(-c2ccc(F)cc2)oc2ccc(-c3cc(C(=O)NCC(C)C)ccc3OCc3ccc(C(F)(F)F)cn3)cc12 | > 10000 | > 10000 | – | – | – |
| CNC(=O)c1c(-c2ccc(F)cc2)oc2ccc(-c3cccc(C(=O)NC(CO)CO)c3)cc12 | – | – | 1000 to 10000 | > 10000 | – |
| C#CCNC(=O)c1cccc(-c2ccc3oc(-c4ccc(F)cc4)c(C(=O)NC)c3c2)c1 | – | – | 250 to 1000 | 1000 to 10000 | – |
| CNC(=O)c1c(-c2ccc(F)cc2)oc2ccc(-c3cccc(C(=O)NC(C)(C)C(=O)N(C)C)c3)cc12 | – | – | < 250 | < 250 | – |
| CNC(=O)c1c(-c2ccc(F)cc2)oc2ccc(-c3cc(C(=O)NCC(C)C)ccc3OCCC3CNCCO3)cc12 (stereo not shown) [drawing 415] | < 250 | < 250 | – | – | – |
| CNC(=O)c1c(-c2ccc(F)cc2)oc2ccc(-c3cccc(C(=O)NC(CC(C)C)C(N)=O)c3)cc12 (stereo not shown) | – | – | 250 to 1000 | 250 to 1000 | – |
| CCCC(CCC)NC(=O)c1cccc(-c2ccc3oc(-c4ccc(F)cc4)c(C(=O)NC)c3c2)c1 | – | – | > 400 | 1000 to 10000 | – |
| CNC(=O)c1c(-c2ccc(F)cc2)oc2ccc(-c3cccc(C(=O)NC(C)C)c3)cc12 | – | – | < 250 | < 250 | – |
| CCOC(=O)C1CCCN(C(=O)c2cccc(-c3ccc4oc(-c5ccc(F)cc5)c(C(=O)NC)c4c3)c2)C1 (stereo not shown) | – | – | 1000 to 10000 | 1000 to 10000 | – |
| CNC(=O)c1c(-c2ccc(F)cc2)oc2ccc(-c3cc(C(=O)NC4(c5ccccn5)CC4)c(-c4ccccc4Cl)cc3C)cc12 | < 250 | < 250 | – | – | – |
| CNC(=O)c1c(-c2ccc(F)cc2)oc2ccc(-c3cc(C(=O)NC4(c5coc(C)n5)CC4)c(OC)cc3C)cc12 | < 250 | < 250 | – | – | – |
| CNC(=O)c1c(-c2ccc(F)cc2)oc2ccc(-c3cc(OCCOC)cc(C(=O)NCC(C)C)c3)cc12 | > 500 | 1000 to 10000 | – | – | – |

| SMILES | IC50 ([1]; Table 1b) [nM] | EC50 (HCV replicon cells; Table 1b) [nM] | IC50 ([1]; Table 1a) [nM] | EC50 (HCV replicon cells; Table 1a) [nM] | other results |
| --- | --- | --- | --- | --- | --- |
| CNC(=O)c1c(-c2ccc(F)cc2)oc2cc(NS(C)(=O)=O)c(-c3cc(C(=O)NC4(c5ccccc5)CC4)ccc3F)cc12 | < 250 | < 250 | – | – | – |
| CNC(=O)c1c(-c2ccc(F)cc2)oc2ccc(-c3cccc(C(=O)NC(C)(C)CC(C)=O)c3)cc12 | – | – | 250 to 1000 | 250 to 1000 | – |
| CNC(=O)c1c(-c2ccc(F)cc2)oc2ccc(-c3cc(C(=O)NC(C)(C)CN4CCOCC4)ccc3C)cc12 | < 250 | < 250 | – | – | – |
| CNC(=O)c1c(-c2ccc(F)cc2)oc2ccc(-c3cccc(C(=O)NC4(c5ccccn5)CC4)c3)cc12 | – | – | < 250 | < 250 | – |
| C#CCNC(=O)C1(NC(=O)c2ccc(C)c(-c3ccc4oc(-c5ccc(F)cc5)c(C(=O)NC)c4c3)c2)CC1 | < 250 | < 250 | – | – | – |
| CNC(=O)c1c(-c2ccc(F)cc2)oc2ccc(-c3cccc(C(=O)NCCC(C)C)c3)cc12 | – | – | 250 to 1000 | < 250 | – |
| CNC(=O)c1c(-c2ccc(F)cc2)oc2ccc(-c3cccc(C(=O)N4Cc5ccccc5C4)c3)cc12 | – | – | > 400 | > 10000 | – |
| CNC(=O)c1c(-c2ccc(F)cc2)oc2ccc(-c3cccc(C(=O)NCc4ccccc4F)c3)cc12 | – | – | 250 to 1000 | 1000 to 10000 | – |
| CCC(CC)NC(=O)c1cccc(-c2ccc3oc(-c4ccc(F)cc4)c(C(=O)NC)c3c2)c1 | – | – | < 250 | < 250 | – |
| CNC(=O)c1c(-c2ccc(F)cc2)oc2ccc(-c3cc(C(=O)NC4(c5ccccn5)CC4)ccc3OC(F)(F)F)cc12 | 250 to 1000 | < 250 | – | – | – |
| CCCCCNC(=O)c1cccc(-c2ccc3oc(-c4ccc(F)cc4)c(C(=O)NC)c3c2)c1 | – | – | < 250 | < 250 | – |
| CNC(=O)c1c(-c2ccc(F)cc2)oc2ccc(-c3cccc(S(=O)(=O)NC4CC4)c3)cc12 | – | – | > 10000 | > 10000 | – |
| CNC(=O)c1c(-c2ccc(F)cc2)oc2ccc(-c3cccc(C(=O)N4CCN(CCOC)CC4)c3)cc12 | – | – | > 10000 | > 10000 | – |
| CNC(=O)c1c(-c2ccc(F)cc2)oc2cc(N(CCO)S(C)(=O)=O)c(-c3cccc(C(=O)NC(C)(C)c4ccccc4)c3)cc12 | – | – | < 250 | < 250 | – |
| CNC(=O)c1c(-c2ccc(F)cc2)oc2ccc(-c3cccc(C(=O)Nc4nccs4)c3)cc12 | – | – | < 250 | 250 to 1000 | – |
| CNC(=O)c1c(-c2ccc(F)cc2)oc2ccc(-c3cc(C(=O)NC4(c5ccccn5)CC4)ccc3C)cc12 [drawing 425] | < 250 | < 250 | – | – | – |
| CNC(=O)c1c(-c2ccc(F)cc2)oc2ccc(-c3cc(C(=O)NC4(c5nnc(-c6ccccn6)[nH]5)CC4)ccc3C)cc12 | < 250 | < 250 | – | – | – |
| CNC(=O)c1c(-c2ccc(F)cc2)oc2ccc(-c3cccc(C(=O)NC4CCCCCC4)c3)cc12 | – | – | < 250 | < 250 | – |
| CNC(=O)c1c(-c2ccc(F)cc2)oc2ccc(-c3ccc(C(=O)NCCNC(C)=O)cc3)cc12 | – | – | > 10000 | > 10000 | – |
| CNC(=O)c1c(-c2ccc(F)cc2)oc2ccc(-c3cc(C(=O)NC4(c5nnc(C6CC6)[nH]5)CC4)ccc3C)cc12 | < 250 | < 250 | – | – | – |

| SMILES | IC50 ([1]; Table 1b) [nM] | EC50 (HCV replicon cells; Table 1b) [nM] | IC50 ([1]; Table 1a) [nM] | EC50 (HCV replicon cells; Table 1a) [nM] | other results |
| --- | --- | --- | --- | --- | --- |
| CNC(=O)c1c(-c2ccc(F)cc2)oc2cc(N)c(-c3cccc(C(=O)NC4(c5ccccc5)CC4)c3)cc12 | – | – | < 250 | < 250 | – |
| CCC[C@H](CO)NC(=O)c1cccc(-c2ccc3oc(-c4ccc(F)cc4)c(C(=O)NC)c3c2)c1 [drawing 228] | – | – | 1000 to 10000 | 1000 to 10000 | – |
| CNC(=O)c1c(-c2ccc(F)cc2)oc2ccc(-c3cc(C(=O)NCC(C)C)ccc3OCCN3CCCCC3)cc12 | 250 to 1000 | < 250 | – | – | – |
| CNC(=O)c1c(-c2ccc(F)cc2)oc2ccc(-c3cc(C(=O)NC4(c5ccccn5)CC4)c(OC)cc3OCC(N)=O)cc12 | < 20 | < 250 | – | – | – |
| CNC(=O)c1c(-c2ccc(F)cc2)oc2ccc(-c3ccc(C(=O)NCCc4ccc(F)cc4)cc3)cc12 | – | – | > 10000 | 1000 to 10000 | – |
| CNC(=O)c1c(-c2ccc(F)cc2)oc2ccc(-c3cc(C(F)(F)F)ccc3OC)cc12 | – | – | > 10000 | > 3700 | – |
| CNC(=O)c1c(-c2ccc(F)cc2)oc2cc(NS(C)(=O)=O)c(-c3cc(C(=O)NCC(C)C)ccc3OC)cc12 | < 250 | < 250 | – | – | – |
| CNC(=O)c1c(-c2ccc(F)cc2)oc2ccc(-c3cccc(C(=O)NS(C)(=O)=O)c3)cc12 | – | – | 250 to 1000 | > 10000 | – |
| CNC(=O)c1c(-c2ccc(F)cc2)oc2ccc(-c3cc(C(=O)NCC(C)C)ccc3OCc3ccccn3)cc12 | < 250 | < 250 | – | – | – |
| CNC(=O)c1c(-c2ccc(F)cc2)oc2ccc(-c3cccc(C(=O)O)c3OC)cc12 | – | – | – | – | IC50 ([1]; untitled table after Table 1b): 4750 nM; EC50 (HCV replicon cells; untitled table after Table 1b, values without asterisk): 13300 nM |
| CNC(=O)Nc1c(-c2ccc(F)cc2)oc2ccc(OC(C)C)cc12 | – | – | > 10000 | > 10000 | – |
| CNC(=O)c1c(-c2ccc(F)cc2)oc2ccc(-c3ccc(C(=O)NCC(N)=O)cc3)cc12 | – | – | > 10000 | > 10000 | – |
| CCC(O)COc1ccc(C(=O)NCC(C)C)cc1-c1ccc2oc(-c3ccc(F)cc3)c(C(=O)NC)c2c1 (stereo not shown) | 250 to 1000 | 250 to 1000 | – | – | – |
| CNC(=O)c1c(-c2ccc(F)cc2)oc2ccc(-c3cc(C(=O)NCC(C)C)ccc3OC(C)C)cc12 | – | – | 250 to 1000 | 250 to 1000 | – |
| CNC(=O)c1c(-c2ccc(F)cc2)oc2ccc(-c3cc(C(=O)NC4(c5ccccn5)CC4)c(OCc4cnccn4)cc3C)cc12 [drawing 660] | – | – | – | – | IC50 ([1]; Table 1d (class symbols)): 1 to 250 nM; EC50 (HCV replicon cells; 24 h, Table 1d (class symbols)): 1 to 250 nM |
| CNC(=O)c1c(-c2ccc(F)cc2)oc2ccc(-c3cccc(C(=O)NC(C)(C)C(=O)NC)c3)cc12 | – | – | < 250 | < 250 | – |
| CCOCCNC(=O)c1cccc(-c2ccc3oc(-c4ccc(F)cc4)c(C(=O)NC)c3c2)c1 | – | – | < 250 | 250 to 1000 | – |
| CNC(=O)c1c(-c2ccc(F)cc2)oc2ccc(-c3cccc(C(=O)NCc4ccc(F)cc4)c3)cc12 | – | – | < 250 | < 250 | – |
| CNC(=O)c1c(-c2ccc(F)cc2)oc2ccc(-c3cccc(C(=O)NCCOC)c3)cc12 [drawing 182] | – | – | 1000 to 10000 | 1000 to 10000 | – |
